Measurements as given in patent publication EP1515965B1, “PHENYLAMINOPYRIMIDINES AND THEIR USE AS RHO-KINASE INHIBITORS” (Bayer Schering Pharma Aktiengesellschaft, priority 2002, dated 2003).
Where two headings read alike, the source gives them in different places.

Assays:
Rho-Kinase II (ROKα) = target: T1, Rho-Kinase II (ROKα) (Rattus norvegicus, UniProt Q62868); experiment: Inhibition of recombinant Rho-kinase II (ROKα), 33P-phosphate incorporation into S6 substrate peptide; assay type: biochemical; settings: recombinant Rho-Kinase II (Upstate Biotechnology), S6 Phosphate-Acceptor-Peptide, 33P-ATP, 20 min at 37°C
T1 construct: purchased Upstate Biotechnology
T1 sequence (Q62868 whole entry): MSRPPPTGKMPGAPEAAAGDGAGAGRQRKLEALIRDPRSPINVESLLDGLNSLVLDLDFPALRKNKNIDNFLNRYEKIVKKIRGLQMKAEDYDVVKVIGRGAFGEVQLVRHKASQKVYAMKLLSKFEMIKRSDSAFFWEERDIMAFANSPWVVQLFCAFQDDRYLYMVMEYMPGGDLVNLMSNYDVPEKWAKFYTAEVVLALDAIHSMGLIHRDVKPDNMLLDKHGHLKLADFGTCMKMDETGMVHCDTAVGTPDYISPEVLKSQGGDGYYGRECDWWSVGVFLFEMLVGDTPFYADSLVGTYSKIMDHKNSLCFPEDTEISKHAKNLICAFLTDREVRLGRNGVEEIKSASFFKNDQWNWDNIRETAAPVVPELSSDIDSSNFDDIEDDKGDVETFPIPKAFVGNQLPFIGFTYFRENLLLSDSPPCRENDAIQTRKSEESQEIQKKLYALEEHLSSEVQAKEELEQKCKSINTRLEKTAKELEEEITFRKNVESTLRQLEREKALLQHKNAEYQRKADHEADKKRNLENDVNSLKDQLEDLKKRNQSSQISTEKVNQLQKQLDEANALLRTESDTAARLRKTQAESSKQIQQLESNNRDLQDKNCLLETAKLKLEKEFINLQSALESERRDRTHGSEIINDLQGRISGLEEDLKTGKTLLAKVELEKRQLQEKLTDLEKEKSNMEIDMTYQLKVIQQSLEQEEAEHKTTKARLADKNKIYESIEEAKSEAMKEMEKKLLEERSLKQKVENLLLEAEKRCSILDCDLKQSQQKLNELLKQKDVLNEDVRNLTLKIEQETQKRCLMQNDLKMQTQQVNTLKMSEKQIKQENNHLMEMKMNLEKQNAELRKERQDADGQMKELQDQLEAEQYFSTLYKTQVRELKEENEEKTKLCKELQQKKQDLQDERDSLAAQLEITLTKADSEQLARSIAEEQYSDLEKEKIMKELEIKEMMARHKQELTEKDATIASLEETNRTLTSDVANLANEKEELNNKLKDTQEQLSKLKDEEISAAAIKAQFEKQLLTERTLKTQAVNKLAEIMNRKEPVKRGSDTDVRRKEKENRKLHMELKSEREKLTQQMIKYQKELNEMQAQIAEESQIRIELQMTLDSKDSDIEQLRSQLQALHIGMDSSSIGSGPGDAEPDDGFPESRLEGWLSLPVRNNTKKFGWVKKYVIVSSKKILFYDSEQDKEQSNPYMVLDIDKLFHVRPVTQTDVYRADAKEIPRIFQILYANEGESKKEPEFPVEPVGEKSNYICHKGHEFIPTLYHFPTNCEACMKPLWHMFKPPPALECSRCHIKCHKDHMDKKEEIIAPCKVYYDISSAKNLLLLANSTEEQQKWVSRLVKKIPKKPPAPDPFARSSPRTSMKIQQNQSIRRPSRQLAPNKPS
Excerpt: (§1) In einem in vitro-Assay mit rekombinanter Rho-Kinase-II wird die Hemmung des Enzyms untersucht. Die gefäßrelaxierende Wirkung wird an Phenylephrin-induzierten Kontraktionen isolierter Ringe der Kaninchen-Arteria-Saphena bestimmt. Die Eignung der erfindungsgemäßen Verbindungen zur Behandlung von kardiovaskulären Erkrankungen kann durch Untersuchung der blutdrucksenkenden Wirkung an narkotisierten Ratten gezeigt werden.
Die Aktivität der Rho-Kinase wird durch den Einbau von ^33P-Phosphat in ein Substratpeptid bestimmt. Dazu wird kommerziell erhältliche Rho-Kinase II (Upstate Biotechnology) in Gegenwart des S6 Phosphate-Acceptor-Peptides mit den Testsubstanzen oder einer Lösungsmittelkontrolle 10 min bei 37°C vorinkubiert. Anschliessend wird die Kinase-Reaktion durch Zugabe von ^33P-markiertem ATP gestartet. Nach 20 min bei 37°C wird die Reaktion durch Zugabe von H3PO4 gestoppt. Aliquots werden auf Filter pipettiert, die Filter gewaschen und anschließend mit Scintillator beschichtet. Die Radioaktivität der am Filter gebundenen ^33P-markierten Peptide wird in einem Micro-Beta-Counter gemessen. Der IC50-Wert entspricht der Konzentration einer Testsubstanz bei welcher der Rho-Kinase katalysierte Einbau von ^33P in das Peptid im Vergleich zu einer Lösungsmittelkontrolle um 50 % gehemmt ist. Die experimentellen Daten sind in der folgenden Tabelle zusammengestellt.

[1] = tested on: Kaninchen-Arteria-Saphena; experiment: Vasorelaxant effect in vitro: phenylephrine-induced contractions of isolated rabbit saphenous artery rings
Excerpt: as §1
3 mm breite Ringe der isolierten Kaninchen-Arteria-Saphena werden einzeln in 5 ml-Organbäder mit 37°C warmer, carbogenbegaster Krebs-Henseleit-Lösung gebracht. Der Gefäßtonus wird isometrisch erfasst und registriert. Kontraktionen werden durch Zugabe von 3x10^-8 g/ml Phenylephrin induziert und nach 4 min wieder ausgewaschen. Nach mehreren Kontrollzyklen wird die zu untersuchende Substanz mit jedem weiteren Durchgang in steigender Dosierung vorinkubiert und die darauffolgende Kontraktion mit der Höhe der letzten Kontrollkontraktion verglichen. Es wird die Konzentration errechnet, die erforderlich ist, um die Höhe des Kontrollwertes um 50 % zu reduzieren (IC50). Die experimentellen Daten sind in der folgenden Tabelle zusammengestellt.

[2] = isolated rings of rabbit Arteria saphena, contraction induced by 3x10^-8 g/ml Phenylephrin, concentration reducing control contraction by 50 %, read-out: IC50

| IC50 (Rho-Kinase II (ROKα)) [nM] | IC50 [1, 2] [nM] | SMILES | IC50 [1] [nM] |
| --- | --- | --- | --- |
| 70 | – | Nc1nc(Nc2ccc(Sc3ccncc3)c(F)c2)cc(Oc2cccc(Cl)c2)n1 [Beispiel 56] | – |
| 6 | 900 | Nc1nc(Nc2cc(F)c(Sc3ccncc3)c(Cl)c2)cc(N2C[C@H]3CCCN[C@H]3C2)n1 [Beispiel 22] | – |
| 5 | 360 | Nc1nc(Nc2cc(F)c(Sc3ccncc3)c(F)c2)cc(N2C[C@H]3CCCN[C@H]3C2)n1 [Beispiel 59] | – |
| 7 | 760 | Nc1nc(Nc2ccc(Sc3ccncc3)c(F)c2)cc(-c2ccc3ncccc3c2)n1 [Beispiel 1, N-[2-Amino-6-(6-chinolinyl)-4-pyrimidinyl]-N-[3-fluor-4-(4-pyridinylsulfanyl)-phenyl]amin] | – |

| SMILES | IC50 (Rho-Kinase II (ROKα)) [nM] | IC50 [1, 2] [nM] | IC50 [1] [nM] |
| --- | --- | --- | --- |
| Nc1nc(Nc2ccc(Sc3ccncc3)c(F)c2)cc(N2C[C@H]3CCCN[C@H]3C2)n1 [Beispiel 20] | 11 | – | 1700 |
